Assay results from PubChem BioAssay AID1745844 (Carcinogenic Potency Database (CPDB), 2022).
Values joined by “and” are separate entries in the source; they are usually repeats but may differ in a detail not shown here. Equal entries are not always repeated. Active and inactive are the calls of the source. No rule for the calls is given here.

Test system: rodent lifetime carcinogenesis bioassay, tumor incidence TD50
Experiment: chronic cancer bioassays in animals – CPDB, compiled studies (AID 1745844)
[1] = mouse, strain A/He, females, in feed, site: liver, lesion: hepatoma, dosed 104 weeks, study length 104 weeks
[2] = mouse, strain A/He, females, in feed, site: lung, lesion: one or several types, types not named, dosed 104 weeks, study length 104 weeks
[3] = mouse, strain C3HfB, females, in feed, site: lung, lesion: one or several types, types not named, dosed 104 weeks, study length 104 weeks
[4] = mouse, strain CFLP, females, in feed, site: liver, lesion: hepatocellular tumor, dosed 78 weeks, study length 78 weeks

Cc1ccc(N=Nc2c(O)ccc3ccccc23)c([N+](=O)[O-])c1
TD50 (mouse, strain B6C3F1, females, in feed, site: any site (literature study), lesion: several types, types named in the paper, dosed 103 weeks, study length 104 weeks): 13800 mg/kg/day | TD50 (mouse, strain B6C3F1, females, in feed, site: liver, lesion: hepatocellular adenoma + hepatocellular carcinoma + neoplastic nodule, dosed 103 weeks, study length 104 weeks): 204000 mg/kg/day | TD50 (mouse, strain B6C3F1, females, in feed, site: lung, lesion: alveolar/bronchiolar adenoma + alveolar/bronchiolar carcinoma, dosed 103 weeks, study length 104 weeks): 252000 mg/kg/day | TD50 (mouse, strain B6C3F1, females, in feed, site: lymph node, lesion: axillary histiocytic sarcoma + deep cervical, histiocytic sarcoma + iliac histiocytic sarcoma + inguinal histiocytic sarcoma + r, dosed 103 weeks, study length 104 weeks): 104000 mg/kg/day (inactive) | TD50 (mouse, strain B6C3F1, males, in feed, site: all sites, lesion: malignant lymphoma, histiocytic type + malignant lymphoma, mixed type, dosed 103 weeks, study length 104 weeks): 22700 mg/kg/day | TD50 (mouse, strain B6C3F1, males, in feed, site: any site (literature study), lesion: several types, types named in the paper, dosed 103 weeks, study length 104 weeks): 9420 mg/kg/day | TD50 (mouse, strain B6C3F1, males, in feed, site: kidney cortex + thyroid gland, lesion: adenoma + follicular-cell adenoma, dosed 103 weeks, study length 104 weeks): 19500 mg/kg/day | TD50 (mouse, strain B6C3F1, males, in feed, site: kidney cortex, lesion: adenoma, dosed 103 weeks, study length 104 weeks): 35500 mg/kg/day | TD50 (mouse, strain B6C3F1, males, in feed, site: liver, lesion: hepatocellular adenoma + hepatocellular carcinoma + neoplastic nodule, dosed 103 weeks, study length 104 weeks): 17900 mg/kg/day | TD50 (mouse, strain B6C3F1, males, in feed, site: lung, lesion: alveolar/bronchiolar adenoma + alveolar/bronchiolar carcinoma, dosed 103 weeks, study length 104 weeks): 36900 mg/kg/day | TD50 (mouse, strain B6C3F1, males, in feed, site: thyroid gland, lesion: follicular-cell adenoma, dosed 103 weeks, study length 104 weeks): 38300 mg/kg/day | TD50 (rat, strain Fischer 344, females, in feed, site: liver, lesion: hepatocellular adenoma + hepatocellular carcinoma + neoplastic nodule, dosed 103 weeks, study length 104 weeks): 5240 mg/kg/day | TD50 (rat, strain Fischer 344, females, in feed, site: liver, lesion: hepatocellular adenoma, dosed 103 weeks, study length 104 weeks): 5240 mg/kg/day | TD50 (rat, strain Fischer 344, males, in feed, site: Zymbal's gland, lesion: carcinoma, dosed 103 weeks, study length 104 weeks): 9010 mg/kg/day | TD50 (rat, strain Fischer 344, males, in feed, site: adrenal medulla, lesion: pheochromocytoma, benign, dosed 103 weeks, study length 104 weeks): 674 mg/kg/day | TD50 (rat, strain Fischer 344, males, in feed, site: adrenal medulla, lesion: pheochromocytoma, malignant + pheochromocytoma, benign, dosed 103 weeks, study length 104 weeks): 661 mg/kg/day | TD50 (rat, strain Fischer 344, males, in feed, site: any site (literature study), lesion: several types, types named in the paper, dosed 103 weeks, study length 104 weeks): 906 mg/kg/day | TD50 (rat, strain Fischer 344, males, in feed, site: liver, lesion: hepatocellular adenoma + hepatocellular carcinoma + neoplastic nodule, dosed 103 weeks, study length 104 weeks): 5170 mg/kg/day | TD50 (rat, strain Fischer 344, males, in feed, site: skin, lesion: carcinoma + squamous-cell papilloma, dosed 103 weeks, study length 104 weeks): 3660 mg/kg/day | TD50 (rat, strain Fischer 344, males, in feed, site: skin, lesion: squamous-cell papilloma, dosed 103 weeks, study length 104 weeks): 2540 mg/kg/day

CC(=O)CN(N=O)C(N)=O
TD50 (hamster, strain Syrian Golden, females, by gavage, site: spleen, lesion: all vascular tumors, dosed 40 weeks, study length 55 weeks): 0.121 mg/kg/day | TD50 (hamster, strain Syrian Golden, males, by gavage, site: spleen, lesion: hemangiosarcoma, dosed 40 weeks, study length 75 weeks): 0.14 mg/kg/day | TD50 (rat, strain Fischer 344, females, by gavage, site: kidney, lesion: mesenchymal neoplasm, dosed 30 weeks, study length 104 weeks): 0.32 mg/kg/day | TD50 (rat, strain Fischer 344, females, by gavage, site: liver, lesion: one or several types, types not named, dosed 30 weeks, study length 104 weeks): 4.04 mg/kg/day | TD50 (rat, strain Fischer 344, males, by gavage, site: kidney, lesion: mesenchymal neoplasm, dosed 30 weeks, study length 104 weeks): 0.456 mg/kg/day

O=C1c2cccc(O)c2C(=O)c2c(O)cccc21
TD50 (mouse, strain C3H/HeN, males, in feed, site: liver, lesion: hepatocellular adenoma, dosed 77 weeks, study length 77 weeks): 201 mg/kg/day | TD50 (mouse, strain C3H/HeN, males, in feed, site: liver, lesion: hepatocellular carcinoma, dosed 77 weeks, study length 77 weeks): 336 mg/kg/day | TD50 (mouse, strain C3H/HeN, males, in feed, site: liver, lesion: several types, types named in the paper, dosed 77 weeks, study length 77 weeks): 201 mg/kg/day | TD50 (rat, strain ACI, males, in feed, site: large intestine, lesion: several types, types named in the paper, dosed 69 weeks, study length 69 weeks): 245 mg/kg/day

C#C[C@]1(O)CC[C@H]2[C@@H]3CCc4cc(OC)ccc4[C@H]3CC[C@@]21C (tested in a mixture with another compound)
TD50 [1]: 25.2 mg/kg/day (inactive) | carcinogen call [1]: negative (inactive) | TD50 [2]: 4.62 mg/kg/day (inactive) and 4.31 mg/kg/day (inactive) | carcinogen call [2]: negative (inactive) | TD50 (mouse, strain BALB/c, females, in feed, site: several sites, sites named in the paper, lesion: squamous-cell carcinoma, dosed 86 weeks, study length 86 weeks): 2 mg/kg/day | carcinogen call (mouse, strain BALB/cHe, females, in feed, site: lung, lesion: one or several types, types not named, dosed 104 weeks, study length 104 weeks): negative (inactive) | carcinogen call (mouse, strain C3H/He (MTV+), females, in feed, site: liver, lesion: hepatoma, dosed 104 weeks, study length 104 weeks): negative (inactive) | TD50 (mouse, strain C3HfB, females, in feed, site: all sites, lesion: fibrosarcoma, dosed 104 weeks, study length 104 weeks): 3.93 mg/kg/day (inactive) | carcinogen call (mouse, strain C3HfB, females, in feed, site: liver, lesion: hepatoma, dosed 104 weeks, study length 104 weeks): negative (inactive) | TD50 [3]: 27.6 mg/kg/day (inactive) | carcinogen call [3]: negative (inactive) | TD50 (mouse, strain C57BL/He, females, in feed, site: hypophysis, lesion: chromophobe adenoma, dosed 104 weeks, study length 104 weeks): 1.75 mg/kg/day and 1.82 mg/kg/day | carcinogen call (mouse, strain C57BL/He, females, in feed, site: liver, lesion: hepatoma, dosed 104 weeks, study length 104 weeks): negative (inactive) | TD50 (mouse, strain C57BL/He, females, in feed, site: lung, lesion: one or several types, types not named, dosed 104 weeks, study length 104 weeks): 20.7 mg/kg/day (inactive) | carcinogen call (mouse, strain C57L/He x 129/Rr x C3HeB/De x SWR/Ly, females, by gavage, site: any site (literature study), lesion: several types, types named in the paper, dosed 69 weeks, study length 69 weeks): negative (inactive) | TD50 (mouse, strain C57L/He x 129/Rr x C3HeB/De x SWR/Ly, females, by gavage, site: any site (literature study), lesion: several types, types named in the paper, dosed 69 weeks, study length 82 weeks): 0.332 mg/kg/day (inactive) | carcinogen call (mouse, strain C57L/He x 129/Rr x C3HeB/De x SWR/Ly, females, by gavage, site: lung, lesion: one or several types, types not named, dosed 69 weeks, study length 69 weeks): negative (inactive) | TD50 (mouse, strain C57L, females, by gavage, site: pituitary gland, lesion: one or several types, types not named, dosed 89 weeks, study length 89 weeks): 0.151 mg/kg/day | TD50 [4]: 143 mg/kg/day (inactive) | carcinogen call [4]: negative (inactive) | carcinogen call (mouse, strain CFLP, males, in feed, site: liver, lesion: hepatocellular tumor, dosed 78 weeks, study length 78 weeks): negative (inactive) | TD50 (mouse, strain Swiss Webster, females, by gavage, site: liver, lesion: hepatocellular tumor, dosed 65 weeks, study length 80 weeks): 20.8 mg/kg/day (inactive)

O=c1cc[nH]c(=O)[nH]1
TD50 (mouse, strain B6C3F1, females, in feed, site: liver, lesion: hyperplastic nodule, dosed 96 weeks, study length 96 weeks): 18200 mg/kg/day | TD50 (mouse, strain B6C3F1, females, in feed, site: urinary bladder, lesion: carcinoma, in situ, dosed 96 weeks, study length 96 weeks): 56700 mg/kg/day | TD50 (mouse, strain B6C3F1, females, in feed, site: urinary bladder, lesion: leiomyosarcoma, dosed 96 weeks, study length 96 weeks): 56700 mg/kg/day | TD50 (mouse, strain B6C3F1, females, in feed, site: urinary bladder, lesion: transitional-cell carcinoma, dosed 96 weeks, study length 96 weeks): 1450 mg/kg/day | TD50 (mouse, strain B6C3F1, males, in feed, site: liver, lesion: hyperplastic nodule, dosed 96 weeks, study length 96 weeks): 48800 mg/kg/day | TD50 (mouse, strain B6C3F1, males, in feed, site: lung, lesion: adenocarcinoma, dosed 96 weeks, study length 96 weeks): 52300 mg/kg/day | TD50 (mouse, strain B6C3F1, males, in feed, site: urinary bladder, lesion: squamous-cell carcinoma, dosed 96 weeks, study length 96 weeks): 25700 mg/kg/day | TD50 (mouse, strain B6C3F1, males, in feed, site: urinary bladder, lesion: transitional-cell carcinoma, dosed 96 weeks, study length 96 weeks): 25700 mg/kg/day | TD50 (rat, strain F344/DuCrj, females, in feed, site: kidney/pelvis, lesion: carcinoma, dosed 104 weeks, study length 104 weeks): 9760 mg/kg/day | TD50 (rat, strain F344/DuCrj, females, in feed, site: urinary bladder, lesion: squamous-cell papilloma, dosed 104 weeks, study length 104 weeks): 29300 mg/kg/day | TD50 (rat, strain F344/DuCrj, females, in feed, site: urinary bladder, lesion: transitional-cell carcinoma, dosed 104 weeks, study length 104 weeks): 5640 mg/kg/day | TD50 (rat, strain F344/DuCrj, females, in feed, site: urinary bladder, lesion: transitional-cell papilloma, dosed 104 weeks, study length 104 weeks): 4260 mg/kg/day | TD50 (rat, strain F344/DuCrj, males, in feed, site: kidney/pelvis, lesion: carcinoma, dosed 104 weeks, study length 104 weeks): 3090 mg/kg/day | TD50 (rat, strain F344/DuCrj, males, in feed, site: kidney/pelvis, lesion: papilloma, dosed 104 weeks, study length 104 weeks): 5750 mg/kg/day | TD50 (rat, strain F344/DuCrj, males, in feed, site: urinary bladder, lesion: leiomyosarcoma, dosed 104 weeks, study length 104 weeks): 24300 mg/kg/day | TD50 (rat, strain F344/DuCrj, males, in feed, site: urinary bladder, lesion: squamous-cell carcinoma, dosed 104 weeks, study length 104 weeks): 7800 mg/kg/day | TD50 (rat, strain F344/DuCrj, males, in feed, site: urinary bladder, lesion: squamous-cell papilloma, dosed 104 weeks, study length 104 weeks): 24300 mg/kg/day | TD50 (rat, strain F344/DuCrj, males, in feed, site: urinary bladder, lesion: transitional-cell carcinoma, dosed 104 weeks, study length 104 weeks): 357 mg/kg/day | TD50 (rat, strain F344/DuCrj, males, in feed, site: urinary bladder, lesion: transitional-cell papilloma, dosed 104 weeks, study length 104 weeks): 511 mg/kg/day

[Cl][Hg]
carcinogen call (mouse, strain BALB/c, males, in feed, site: liver, lesion: one or several types, types not named, dosed 60 weeks, study length 104 weeks): negative (inactive) | carcinogen call (mouse, strain BALB/c, males, in feed, site: lung, lesion: one or several types, types not named, dosed 60 weeks, study length 104 weeks): negative (inactive)

CCC[CH2][Sn]([CH2]CCC)([O]C(C)=O)[O]C(C)=O
TD50 (mouse, strain B6C3F1, females, in feed, site: any site (literature study), lesion: several types, types named in the paper, dosed 78 weeks, study length 92 weeks): 29.6 mg/kg/day | TD50 (mouse, strain B6C3F1, females, in feed, site: liver, lesion: hepatocellular adenoma + hepatocellular carcinoma + neoplastic nodule, dosed 78 weeks, study length 92 weeks): 31.6 mg/kg/day | TD50 (mouse, strain B6C3F1, females, in feed, site: liver, lesion: hepatocellular adenoma, dosed 78 weeks, study length 92 weeks): 31.6 mg/kg/day (inactive) | TD50 (mouse, strain B6C3F1, males, in feed, site: any site (literature study), lesion: several types, types named in the paper, dosed 78 weeks, study length 92 weeks): 178 mg/kg/day (inactive) | TD50 (mouse, strain B6C3F1, males, in feed, site: liver, lesion: hepatocellular adenoma + hepatocellular carcinoma + neoplastic nodule, dosed 78 weeks, study length 92 weeks): 29.2 mg/kg/day | TD50 (rat, strain Fischer 344, females, in feed, site: liver, lesion: hepatocellular adenoma + hepatocellular carcinoma + neoplastic nodule, dosed 78 weeks, study length 104 weeks): 94.4 mg/kg/day | carcinogen call (rat, strain Fischer 344, males, in feed, site: any site (literature study), lesion: several types, types named in the paper, dosed 78 weeks, study length 104 weeks): negative (inactive)
